{"source": "patent US5648366A", "about": "“Substituted pyrrolidin-3-yl-alkyl-piperidines” (Merrell Pharmaceuticals Inc., priority 1995, dated 1997)", "key": {"[1]": {"biological_target": "T1, human jejunal NK2 receptor (Homo sapiens, UniProt P21452)", "T1 construct": "expressed in transfected cells; host or cells: HSKR-1 cells (mouse 3T3 fibroblasts)", "T1 sequence (P21452 1-398)": "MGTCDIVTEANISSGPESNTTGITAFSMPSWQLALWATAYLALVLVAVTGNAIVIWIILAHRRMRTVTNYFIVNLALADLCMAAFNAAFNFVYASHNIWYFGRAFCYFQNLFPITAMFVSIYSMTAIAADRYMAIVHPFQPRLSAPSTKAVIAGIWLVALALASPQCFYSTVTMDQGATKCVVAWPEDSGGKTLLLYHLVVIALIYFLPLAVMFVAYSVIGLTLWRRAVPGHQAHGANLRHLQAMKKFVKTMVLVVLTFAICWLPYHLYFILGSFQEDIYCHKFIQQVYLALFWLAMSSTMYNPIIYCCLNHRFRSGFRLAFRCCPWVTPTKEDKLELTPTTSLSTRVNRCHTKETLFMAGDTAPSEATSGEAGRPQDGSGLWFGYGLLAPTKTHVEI", "assay": "Antagonism of iodinated tachykinin (125I-neurokinin A) binding to NK2 receptor in HSKR-1 cells", "procedure": "(§1) ANTAGONISM OF IODINATED TACHYKININ BINDING TO NK1 AND NK2 RECEPTORS BY PUTATIVE ANTAGONISTS\n(§2) The NK1 receptor affinity of proposed tachykinin antagonists was evaluated in guinea pig lungs (Keystone Biologicals, Cleveland, Ohio), affinity for the NK2 receptor evaluated in HSKR-1 cells (which are mouse 3T3 fibroblasts expressing the human jejunal NK2 receptor) and NK-3 receptor affinity was evaluated in freshly collected guinea pig cerebral cortex. Tissues or cells were homogenized with a Polytron in 15 volumes of 50 mM Tris-HCl buffer (pH 7.4, 4° C.) and centrifuged. The pellet was resuspended in Tris-HCl buffer and was centrifuged; the pellet was washed twice by resuspension. The final pellet was resuspended at a concentration of 40 mg/ml for tissues (guinea pig lung and cerebral cortex) and 20 mg/ml for cells in incubation buffer and remained at room temperature for at least 15 min prior to use. […] Filter bound radioactivity was quantitated in a gamma counter. […] Specific binding was calculated by subtracting nonspecific binding from total binding. Competition of iodinated SP, NKA, or eledoisin binding by test compounds or standards was expressed as a percentage of this maximum competition. […]"}, "[2]": {"biological_target": "T2, NK-3 receptor (Cavia porcellus, UniProt P30098)", "T2 construct": "freshly collected guinea pig cerebral cortex; from tissue; host or cells: guinea pig cerebral cortex membranes", "T2 sequence (P30098 1-440)": "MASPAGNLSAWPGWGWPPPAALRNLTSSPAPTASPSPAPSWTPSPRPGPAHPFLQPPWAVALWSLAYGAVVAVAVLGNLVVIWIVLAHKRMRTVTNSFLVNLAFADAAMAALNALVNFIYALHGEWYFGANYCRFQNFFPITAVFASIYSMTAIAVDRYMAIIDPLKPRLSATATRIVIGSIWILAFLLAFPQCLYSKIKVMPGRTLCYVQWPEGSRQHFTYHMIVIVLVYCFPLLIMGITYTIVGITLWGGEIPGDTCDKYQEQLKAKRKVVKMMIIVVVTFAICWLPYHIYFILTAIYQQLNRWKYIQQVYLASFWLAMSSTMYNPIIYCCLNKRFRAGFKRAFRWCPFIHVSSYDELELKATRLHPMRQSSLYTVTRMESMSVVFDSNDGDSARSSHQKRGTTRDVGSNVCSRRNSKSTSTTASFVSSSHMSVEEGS", "assay": "Antagonism of iodinated tachykinin (125I-eledoisin) binding to NK3 receptor in guinea pig cerebral cortex", "procedure": "as §1, §2"}}, "data": [{"smiles": "COc1cc(C(=O)N2CCC(CCN3CCC(C(N)=O)(c4ccccc4)CC3)(c3ccc(Cl)c(Cl)c3)C2)cc(OC)c1OC", "note": "(centres unmarked) [Example 3, 1-[2-[3-(3,4-dichloro-phenyl)-1-(3,4,5-trimethoxy-benzoyl)-pyrrolidin-3-yl]-ethyl]-4-phenyl-piperidine-4-carboxylic acid amide]", "values": [{"measurement": "affinity for NK2 receptors (in words)", "setting": "[1]", "result": "high affinity"}, {"measurement": "affinity for NK3 receptors (in words)", "setting": "[2]", "result": "high affinity"}]}]}
